In patent US6566399B2, “Inhibitor of replicative senescence of human keratinocytes containing retinoic acid as active ingredients” (priority 2000, dated 2003):

Columns and labels:
[1] = test system: normal human oral keratinocytes (NHOK); test: NHOK proliferation rate with all-trans retinoic acid (viable cell count by trypan blue exclusion); type: cell-based
Procedure: NHOK were prepared from human gingival tissue specimens (Min B. -M. et al., Int. J. Oncol., […], 7, 249-256). The tissue samples obtained from four healthy volunteers (ages ranged from 18 to 30 years) were thoroughly washed three times with calcium and magnesium-free Hanks' balanced salt solution (CMF-HBSS; GibcoBRL). In order to separate the epithelial tissue from the underlying mucosa, the tissue scruples were incubated in CMF-HBSS containing collagenase type II (1.0 mg/ml; Sigma Chemical Co.) and dispase grade II (2.4 mg/ml; Boeringer-Mannheim) for 90 min at 37° C. in 95% air and 5% carbon dioxide Primary NHOK were prepared from separated oral epithelial tissue (Min B. -M. et al., Int. J. Oncol. 1995, 7, 249-256), and cultured in keratinocyte basal medium containing 0.15 mM calcium and supplementary growth factor bullet kit (KGM; Clonetics Corp.) as described above. […]
To determine the effect of all-trans retinoic acid on cell proliferation, rapidly proliferating NHOK (PDL 18) were plated at 2×10^4 cells per well in a 24-well culture plate. […] The average number and standard deviation were calculated as the means of four independent experiments (FIG. 1a).

[2] = test system: normal human epidermal keratinocytes (NHEK); test: NHEK proliferation rate with all-trans retinoic acid (viable cell count by trypan blue exclusion); type: cell-based
Procedure: NHEK was prepared in the same manner as in the above example 1, except that tissue samples were taken from human foreskin tissue specimens of two healthy volunteers (ages ranged from 1 to 3 years).
To determine the effect of all-trans retinoic acid on cell proliferation, rapidly proliferating NHEK (PDL 11) were plated at 2×10^4 cell per well in a 24-well plate and cultured until their cell density reached 40% (24 hours after the plating). The cultured cells were exposed to all-trans retinoic acid containing various concentrations, 1 nM, 10 nM, 100 nM, 500 nM, 1 μM, and 5 μM and harvested after 2 or 4 days of incubation to count the number of viable cells by trypan blue exclusion. The average number and standard deviation was calculated as above same procedure (FIG. 1b).

[3] = test system: senescent NHOK (PDL 22); test: Senescence inhibition of senescent NHOK by SA-β-gal staining; type: cell-based, human; conditions: 1 nM, 21 days
Description: The senescent NHOK were positively stained by β-galactosidase (Dimri G. D. et al., Proc. Nat. Acad. Sci., 1995, 92, 9363-9367). Using such properties, the inhibition against senescence of all-trans retinoic acid-treated NHOK was examined. […]
To ensure a representative count, each cell culture was divided into four equal parts and minimum two areas per each part were photographed with Olympus IMT-2 phase-contrast microscope, thus counting the cells. As the result, minimum 500 or more cells per each part were counted.
After the senescent NHOK (PDL 22) were exposed to 1, 10, or 100 nM retinoic acid for 21 days the percentage (%) of senescent cells was obtained from SA-β-gal positive cell (%) versus total cells. The average percentage (%) and standard deviation were calculated from three independent experiments.

[4] = test system: NHOK; test: Mitotic capacity of NHOK through continuous subculture (PDL, SA-β-gal); type: cell-based, human; conditions: 1 nM
Procedure: (§1) At the end of each stage, the population doubling level of NHOK was calculated by the following equation 1: […]
(§2) Wherein, N: PDL, Cf: total cell numbers obtained from the end of a passage, Ci: total cell numbers of attached cells at seeding.
(§3) NOOK (PDL 15) showing rapid proliferation was cultured with 2×10^5 cell per 60-mm petri dish. In addition, NHEK (PDL 11) was cultured in the same manner as in the NHOK. The cells were divided into two groups, which were cultured in KGM containing vehicle (0.001% DMSO) or 1 nM all-trans retinoic acid until the cells reached 70% confluency, and then subcultured until they reached the postmitotic stage of cell proliferation. All-trans retinoic acid was used by dissolving it in DMSO and then diluting with KGM so as to have a final DMSO concentration of 0.001%. The PDL accumulated at the last stage of each subculture and the senescent cell numbers in the cultured NHOK and NHEK, that is to say, the percentage (%) of positive cells by SA-β-gal staining were determined. The cell pellet obtained after washing with 1X PBS was frozen at −70° C. for TRAP and Western blot analysis (see, FIGS. 3a, 3b, 3c, 4a, 4b, and 4c).

[5] = test system: NHEK; test: Mitotic capacity of NHEK through continuous subculture (PDL, SA-β-gal); type: cell-based, human; conditions: 1 nM
Procedure: as §1, §2, §3

[6] = test system: telomerase activity of NHOK; test: Telomerase activity of NHOK by TRAP assay; type: cell-based, human; conditions: 1 nM
Procedure: (§4) To investigate telomerase activity of NHOK and NHEK exposed to all-trans retinoic acid, the telomerase activity was determined using a TPAP-eze telomerase detection kit (Oncor Inc.), which, is based on the TRAP assay.
(§5) More specifically, the frozen cell pellet in the above example 4 was dissolved in 200 μl of 1X CHAPS buffer (composition: 10 mM Tris-HCl pH 7.5, 1 mM MgCl2; 1 mM EDTA 0.5% 3[(3-cholamidopropyl)-dimethylammonium]-1-propanesulfonate, 10% glycerol, 5 mM β-mercaptoethanol and 0.1 mM benzamidine), incubated on ice for 30 minutes; and then centrifuged at 12,000 rpm for 30 minutes at 4° C. The separated supernatant was aliquoted and frozen on dry ice for TRAP assay.
(§6) For TRAP analysis, 2 μl of cell lysate containing 1.0 μg of cellular proteins were added to 48 μl of solution including 1X TRAP reaction buffer [composition: 20 mM Tris-HCl (pH 8.3), 1.5 mM MgCl2, 63 mM KCl 0.005% Tween 20, and 1 mM EGTA], 50 μM of each of four types of deoxynucleotide triphosphates, 0.05 μg of TS primer end-labeled with 20 μCi of [γ^32-P] ATP (3000 Ci/mmol; Amersham Corp.), 1 μl of primer mix, and Taq DNA polymerase (Perkin-Elmer) 0.4 unity. […] The PCR products were run in 12.5% nondenaturing polyacrylamide gel in 1X Tris-borate EDTA for 90 minutes at 60 W. After drying the gel, the radioactive signal was detected by autoradiography.

[7] = test system: telomerase activity of NHEK; test: Telomerase activity of NHEK by TRAP assay; type: cell-based, human; conditions: 1 nM
Procedure: as §4, §5, §6

[8] = test system: pRb protein in NHOK; test: pRb protein level in NHOK by Western blot; type: cell-based, human; conditions: 1 nM
Procedure: (§7) To investigate the expression levels of pRb and p16^INK4A proteins in NHOK and NHEK that are exposed to all trans retinoic acid, Western blot analysis (Min B. -M. et al., Int. J. Oncol., 1995, 7, 249-256) was performed using anti-mouse Rb (IFB) monoclonal antibody and anti-human p16 (C-20) polyclonal antibody (Santa Cruz Biotechnology). After probing with each of the respective antibodies, the membrane was stained with 1X Ponceau S stain for 10 minutes to reveal the total protein loading per lane.

[9] = test system: p16^INK4A protein in NHOK; test: p16^INK4A protein level in NHOK by Western blot; type: cell-based, human; conditions: 1 nM, at any given PDL number
Procedure: as §7

[10] = test system: p16^INK4A protein in NHEK; test: p16^INK4A protein level in NHEK by Western blot; type: cell-based, human; conditions: 1 nM, PDL 13.6-17.1
Procedure: as §7

[11] = Acute oral toxicity test of rat; conditions: Sprague-Dawley, in vivo, 1 g/kg/15 ml
Procedure: To investigate the acute oral Toxicity test: Sprague-Dawley rats aged 6 weeks are used. Two rats per group were orally administered with all-trans retinoic acid and the 0.5% methyl cellulose solutions at a dose of 1 g/kg/15 ml one time. After administration, clinical symptoms, occurrence of death and the change of weight were observed. In addition, the rats were killed after administration, dissected, and celiac intestine and thoracic were examined with the unaided eye.

In the case of CC1=C(/C=C/C(C)=C/C=C/C(C)=C/C(=O)O)C(C)(C)CCC1 [all-trans retinoic acid], the “cell proliferation of NHOK, best of the test concentrations” value ([1]; 1 nM, among test concentrations 1 nM to 10 μM) is reported as “maximally enhanced”, the “cell proliferation of NHOK compared to the vehicle control” value ([1]; NHOK (PDL 18), 1 or 10 nM, 2 or 4 days of incubation) is reported as “noticeably increased” and the “cell proliferation of NHEK, best of the test concentrations” value ([2]; 1 nM, among test concentrations 1 nM to 5 μM) is reported as “maximum cell proliferation”. The “growth of NHEK” value ([2]; 1 μM or higher) was “restrained in their growth”, the “cell proliferation of NHEK compared to the vehicle control” value ([2]; NHEK (PDL 11), 1 nM, 2 or 4 days of incubation) was “notably increased” and the “replicative senescence (SA-β-gal positive cells) compared to the vehicle control” value [3] was “significantly inhibited”. For the same compound, the “upper end of the log phase of cell proliferation (PDL)” value ([4]; serial subculture from PDL 15, vehicle: until PDL 20) was 26 PDL, the “PDL at which cells ceased to proliferate” value ([4]; serial subculture, vehicle: PDL 22) was 28 PDL and the “upper end of the log phase of cell proliferation (PDL)” value ([5]; serial subculture from PDL 10.8, vehicle: until PDL 19.8) was 24.3 PDL. For the same compound, the “PDL up to which cells proliferated (no further proliferation)” value ([5]; serial subculture, vehicle: PDL 20.5) was 25.1 PDL, the telomerase activity ([6]; PDL 27 and 28 (replicative senescence)) was “almost undetectable” and the telomerase activity ([6]; at high PDL numbers) was “maintained or slightly increased”. The telomerase activity ([7]; PDL 24.3 and 25.1 (replicative senescence)) was “hardly or almost undetected”, the telomerase activity ([7]; according to the increase of PDL) was “maintained” and the “pRb protein level compared to the vehicle control” value ([8]; according to the increase of PDL (high PDL)) was “higher levels”. For the same compound, the “amount of pRb protein” value ([8]; early culture at PDL 18) was “extremely low”, the “pRb protein level compared to the vehicle control of corresponding PDL” value ([8]; low PDL) was “much lower” and the “intracellular p16^INK4A protein level compared to the vehicle control” value [9] was “significantly lower”. The “intracellular p16^INK4A protein level compared to the vehicle control” value [10] was “much lower” and the LD50 [11] was over 2000 mg/kg.
